AC50 data for 23 compounds are collected here from patent US9108921B2, “Therapeutic compounds and compositions” (AGIOS PHARMACEUTICALS, INC, priority 2014, dated 2015).

Molecules are shown by their SMILES.

Assay [1] deals with T1, PKR WT (Homo sapiens, UniProt P30613). The assay is described as follows: PKR WT enzymatic AC50 assay. Format: biochemical. Conditions: wild type PKR. In a few lines:
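Human PKR (WT or mutant, 80-400 ng/well) in 50 mM Tris pH 7.5, 100 mM KCl, 5 mM MgCl2, 1 mM DTT, 0.03% BSA with PEP 0.1-0.5 mM, NADH 180 uM and LDH, preincubated 60 min at room temperature with compound (11-point 3-fold series from 100 μM final, 1% DMSO). ADP 0.22-1.65 mM started reaction; A340 followed.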

Assay [2] has as its target PKR R532W (Homo sapiens, UniProt P30613, R532W). The assay is described as follows: PKR Mutant Assay, AC50 against PKR R532W. Format: biochemical. Conditions: mutant PKR R532W enzyme. In a few lines:
(§1)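 Steps: compound added to wells, then reaction mix lacking ADP; 60 min room-temperature hold; ADP (0.22-1.65 mM) added to start; A340 monitored at room temperature via PEP/LDH/NADH coupling. Top final compound concentration 100 μM, 3-fold dilutions over 11 points.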

The target of assay [3] is T1, PKR WT. Kind of assay: PKR WT cell based AC50 assay. The note with it: wild type PKR.
Assay [4] deals with PKR R510Q (Homo sapiens, UniProt P30613, R510Q). Kind of assay: PKR Mutant Assay, AC50 against PKR R510Q. It counts as biochemical. The note with it: mutant PKR R510Q enzyme. In a few lines:
as §1

Chain of PKR R510Q (P30613 whole entry R510Q): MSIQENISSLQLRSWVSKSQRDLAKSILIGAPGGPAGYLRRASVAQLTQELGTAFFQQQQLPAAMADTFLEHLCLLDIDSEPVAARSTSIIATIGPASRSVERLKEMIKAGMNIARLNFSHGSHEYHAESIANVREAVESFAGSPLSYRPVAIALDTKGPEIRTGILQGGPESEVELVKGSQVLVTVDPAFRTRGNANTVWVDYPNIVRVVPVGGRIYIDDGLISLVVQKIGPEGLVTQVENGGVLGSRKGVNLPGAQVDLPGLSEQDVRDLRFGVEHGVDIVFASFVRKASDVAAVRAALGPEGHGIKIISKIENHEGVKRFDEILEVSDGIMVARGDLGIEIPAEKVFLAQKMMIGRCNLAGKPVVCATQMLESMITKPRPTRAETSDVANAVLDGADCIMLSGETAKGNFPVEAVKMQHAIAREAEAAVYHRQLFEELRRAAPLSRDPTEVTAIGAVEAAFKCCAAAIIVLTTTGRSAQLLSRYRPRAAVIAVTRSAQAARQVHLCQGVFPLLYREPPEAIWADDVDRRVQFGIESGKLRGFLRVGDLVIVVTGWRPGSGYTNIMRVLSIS
T1 sequence (P30613 whole entry): as the sequence (P30613 whole entry R510Q) above, with Q510R counted along it
Chain of PKR R532W (P30613 whole entry R532W): as the sequence (P30613 whole entry R510Q) above, with Q510R, R532W counted along it

With `O=C(c1ccc(NS(=O)(=O)c2cccc3cccnc23)cc1)N1CCC(O)(Cc2ccccn2)CC1` [Compound 189, N-(4-(4-hydroxy-4-(pyridin-2-ylmethyl)piperidine-1-carbonyl)phenyl)quinoline-8-sulfonamide], the AC50 is under 100 nM in assay [1], under 100 nM in assay [2], 101 to 1000 nM in assay [3] and 101 to 1000 nM in assay [4].
With `Cc1ccc(C2(O)CCN(C(=O)c3ccc(NS(=O)(=O)c4cccc5cccnc45)cc3)CC2)c(Cl)c1` [Compound 190, N-[4-[4-(2-chloro-4-methyl-phenyl)-4-hydroxy-piperidine-1-carbonyl]phenyl]quinoline-8-sulfonamide], the AC50 in assay [1] is under 100 nM; in assay [2], under 100 nM; in assay [3], 101 to 1000 nM; in assay [4], 101 to 1000 nM.
In the case of `O=C(c1ccc(NS(=O)(=O)c2cccc3cccnc23)cc1)N1CCC(O)(c2ncccc2Cl)CC1` [Compound 191, N-(4-(4-(3-chloropyridin-2-yl)-4-hydroxypiperidine-1-carbonyl)phenyl)quinoline-8-sulfonamide], the AC50 in assay [1] is under 100 nM; in assay [2], under 100 nM; in assay [3] it was under 100 nM; in assay [4], 101 to 1000 nM.
As to `CS(=O)(=O)c1ccccc1C1(O)CCN(C(=O)c2ccc(NS(=O)(=O)c3cccc4cccnc34)cc2)CC1` [Compound 192, N-[4-[4-hydroxy-4-(2-methylsulfonylphenyl)piperidine-1-carbonyl]phenyl]quinoline-8-sulfonamide], the AC50 in assay [1] was under 100 nM; in assay [2] it was under 100 nM; in assay [3], under 100 nM; in assay [4], 1010 to 10000 nM.
Regarding `O=C(c1ccc(NS(=O)(=O)c2cccc3cccnc23)cc1F)N1CCC(O)(c2ccccc2Cl)CC1` [Compound 193, N-(4-(4-(2-chlorophenyl)-4-hydroxypiperidine-1-carbonyl)-3-fluorophenyl)quinoline-8-sulfonamide], the AC50 was under 100 nM in assay [1], under 100 nM in assay [2], under 100 nM in assay [3] and 101 to 1000 nM in assay [4].
Turning to `O=C(c1ccc(NS(=O)(=O)c2cccc3cccnc23)cc1)N1CCC(O)(c2ccc(F)cc2)CC1` [Compound 194, N-(4-(4-(4-fluorophenyl)-4-hydroxypiperidine-1-carbonyl)phenyl)quinoline-8-sulfonamide], the AC50 in assay [1] is under 100 nM; in assay [2], under 100 nM; in assay [3] it was under 100 nM; in assay [4], 101 to 1000 nM.
Take `CC(C)(C)C1(O)CCN(C(=O)c2ccc(NS(=O)(=O)c3cccc4cccnc34)cc2)CC1` [Compound 195, N-(4-(4-(tert-butyl)-4-hydroxypiperidine-1-carbonyl)phenyl)quinoline-8-sulfonamide]: the AC50 was under 100 nM in assay [1], under 100 nM in assay [2], under 100 nM in assay [3] and 101 to 1000 nM in assay [4].
In the case of `O=C(c1ccc(NS(=O)(=O)c2cc(F)cc3cccnc23)cc1)N1CCC(O)(c2ccccc2)CC1` [Compound 196, 6-fluoro-N-(4-(4-hydroxy-4-phenylpiperidine-1-carbonyl)phenyl)quinoline-8-sulfonamide], the AC50 was under 100 nM in assay [1], under 100 nM in assay [2], 101 to 1000 nM in assay [3] and 101 to 1000 nM in assay [4].
In the case of `O=C(c1ccc(NS(=O)(=O)c2cccc3ccccc23)cc1)N1CCC(O)(c2ccccc2Cl)CC1` [Compound 197, N-(4-(4-(2-chlorophenyl)-4-hydroxypiperidine-1-carbonyl)phenyl)naphthalene-1-sulfonamide], the AC50 in assay [1] is under 100 nM; in assay [2] it was under 100 nM; in assay [3], 101 to 1000 nM; in assay [4], 101 to 1000 nM.
`O=C(c1ccc(NS(=O)(=O)c2cccc3cccnc23)cc1)N1CCC(O)(c2cccc(C(F)(F)F)c2)CC1` [Compound 199, N-(4-(4-hydroxy-4-(3-(trifluoromethyl)phenyl)piperidine-1-carbonyl)phenyl)quinoline-8-sulfonamide]: the AC50 was under 100 nM in assay [1], under 100 nM in assay [2], under 100 nM in assay [3] and 101 to 1000 nM in assay [4].
For the compound `CC(C)CC1(O)CCN(C(=O)c2ccc(NS(=O)(=O)c3ccc(F)c4cccnc34)cc2)CC1` [Compound 203, 5-fluoro-N-(4-(4-hydroxy-4-isobutylpiperidine-1-carbonyl)phenyl)quinoline-8-sulfonamide], the AC50 is under 100 nM in assay [1], under 100 nM in assay [2], under 100 nM in assay [3] and 101 to 1000 nM in assay [4].
As to `O=C(c1ccc(NS(=O)(=O)c2cccc3cccnc23)cc1)N1CCC(O)(CCC(F)F)CC1` [Compound 204, N-(4-(4-(3,3-difluoropropyl)-4-hydroxypiperidine-1-carbonyl)phenyl)quinoline-8-sulfonamide], the AC50 in assay [1] is under 100 nM; in assay [2], under 100 nM; in assay [3], under 100 nM; in assay [4] it was 101 to 1000 nM.
For the compound `O=C(c1ccc(NS(=O)(=O)c2cccc3cccnc23)cc1)N1CCC(O)(c2ccncc2)CC1` [Compound 206, N-(4-(4-hydroxy-4-(pyridin-4-yl)piperidine-1-carbonyl)phenyl)quinoline-8-sulfonamide], the AC50 in assay [1] was under 100 nM; in assay [2] it was under 100 nM; in assay [3], under 100 nM; in assay [4], 1010 to 10000 nM.
For `Cc1cccc(CC2(O)CCN(C(=O)c3ccc(NS(=O)(=O)c4cccc5cccnc45)cc3)CC2)n1` [Compound 207, N-(4-(4-hydroxy-4-((6-methylpyridin-2-yl)methyl)piperidine-1-carbonyl)phenyl)quinoline-8-sulfonamide], the AC50 is under 100 nM in assay [1], under 100 nM in assay [2], 101 to 1000 nM in assay [3] and 101 to 1000 nM in assay [4].
As for `N#Cc1cc(NS(=O)(=O)c2cccc3cccnc23)ccc1C(=O)N1CCC(O)(c2ccccc2Cl)CC1` [Compound 209], the AC50 is under 100 nM in assay [1], under 100 nM in assay [2], under 100 nM in assay [3] and 101 to 1000 nM in assay [4].
As for `Cc1nc(C(=O)N2CCC(O)(c3ccccc3Cl)CC2)ccc1NS(=O)(=O)c1cccc2cccnc12` [Compound 210, N-(6-(4-(2-chlorophenyl)-4-hydroxypiperidine-1-carbonyl)-2-methylpyridin-3-yl)quinoline-8-sulfonamide], the concentration at half-maximal activity (AC50) in assay [1] was under 100 nM; in assay [2], under 100 nM; in assay [3], 101 to 1000 nM; in assay [4], 101 to 1000 nM.
On to `COc1ncccc1C1(O)CCN(C(=O)c2ccc(NS(=O)(=O)c3cccc4cccnc34)cc2)CC1` [Compound 211, N-(4-(4-hydroxy-4-(2-methoxypyridin-3-yl)piperidine-1-carbonyl)phenyl)quinoline-8-sulfonamide], for which the AC50 in assay [1] was under 100 nM; in assay [2], under 100 nM; in assay [3], 101 to 1000 nM; in assay [4], 101 to 1000 nM.
Consider `O=C(c1ccc(NS(=O)(=O)c2cccc3scnc23)cc1)N1CCC(O)(CC2CCC2)CC1` [Compound 212, N-(4-(4-(cyclobutylmethyl)-4-hydroxypiperidine-1-carbonyl)phenyl)benzo[d]thiazole-4-sulfonamide], for which the AC50 in assay [1] was under 100 nM; in assay [2] it was under 100 nM; in assay [3] it was under 100 nM; in assay [4], 101 to 1000 nM.
Take `CC(C)CC1(O)CCN(C(=O)c2ccc(NS(=O)(=O)c3cccc4nccnc34)cc2OC(F)F)CC1` [Compound 213, N-(3-(difluoromethoxy)-4-(4-hydroxy-4-isobutylpiperidine-1-carbonyl)phenyl)quinoxaline-5-sulfonamide]: the AC50 in assay [1] is under 100 nM; in assay [2], under 100 nM; in assay [3] it was under 100 nM; in assay [4], 101 to 1000 nM.
Turning to `CC(C)C1(O)CCN(C(=O)c2ccc(NS(=O)(=O)c3cccc4cccnc34)cc2)CC1` [Compound 214, N-(4-(4-hydroxy-4-isopropylpiperidine-1-carbonyl)phenyl)quinoline-8-sulfonamide], the AC50 was under 100 nM in assay [1], under 100 nM in assay [2], under 100 nM in assay [3] and 101 to 1000 nM in assay [4].
On to `O=C(c1ccc(NS(=O)(=O)c2cccc3scnc23)cc1)N1CCC(O)(c2ccccc2C(F)F)CC1` [Compound 215, N-(4-(4-(2-(difluoromethyl)phenyl)-4-hydroxypiperidine-1-carbonyl)phenyl)benzo[d]thiazole-4-sulfonamide], for which the AC50 is under 100 nM in assay [1], under 100 nM in assay [2], 101 to 1000 nM in assay [3] and 101 to 1000 nM in assay [4].
On to `O=C(c1ccc(NS(=O)(=O)c2cccc3cccnc23)cc1)N1CCC(O)(c2cccnc2F)CC1` [Compound 217, N-(4-(4-(2-fluoropyridin-3-yl)-4-hydroxypiperidine-1-carbonyl)phenyl)quinoline-8-sulfonamide], for which the AC50 in assay [1] is under 100 nM; in assay [2] it was 101 to 1000 nM; in assay [3] it was 101 to 1000 nM; in assay [4] it was 101 to 1000 nM.
In the case of `O=C(c1ccc(NS(=O)(=O)c2cccc3cc(F)cnc23)cc1)N1CCC(O)(c2ccccc2)CC1` [Compound 218, 3-fluoro-N-(4-(4-hydroxy-4-phenylpiperidine-1-carbonyl)phenyl)quinoline-8-sulfonamide], the half-maximal activity concentration (AC50) is under 100 nM in assay [1], under 100 nM in assay [2], under 100 nM in assay [3] and 101 to 1000 nM in assay [4].
